Source: PubChem BioAssay AID1259411 (Chemical Carcinogenesis Research Information System (CCRIS), 2018)
Calls of active or inactive are those of the source. The rule behind the calls is not given here.

Tested on: rodent carcinogenicity bioassays, tumor incidence
Assay: CCRIS carcinogenicity studies
How it was run: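 Archive of carcinogenicity, mutagenicity, tumor promotion and tumor inhibition results drawn from journals, NCI reports and other sources, expert-reviewed; covers 1985-2011 and is no longer updated.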

Cc1ccc2c3c(cccc13)-c1ccccc1-2
carcinogen call (Species: MOUSE, Strain/Sex: CD-1/FEMALE, Route: INTRAPERITONEAL, Dose: 0, 3.46, 17.3 UMOL (TOTAL DOSE) IN DMSO ADMINISTERED ON DAYS 1,8, AND 15 OF LIFE (STUDY DURATION: 52 WK), Dose: 0, 3.46, 17.3 UMOL (TOTAL DOSE) IN DMSO ADMINISTERED ON DAYS 1,8, AND 15 OF LIFE (STUDY DURATION: 52 WK)): inactive; negative | carcinogen call (Species: MOUSE, Strain/Sex: CD-1/MALE, Route: INTRAPERITONEAL, Dose: 0, 3.46, 17.3 UMOL (TOTAL DOSE) IN DMSO ADMINISTERED ON DAYS 1,8, AND 15 OF LIFE (STUDY DURATION: 52 WK), Dose: 0, 3.46, 17.3 UMOL (TOTAL DOSE) IN DMSO ADMINISTERED ON DAYS 1,8, AND 15 OF LIFE (STUDY DURATION: 52 WK), Tumor Site: Type of Lesion: LIVER: TUMORS): active; positive

COc1ccc(C(=O)/C(Br)=C\C(=O)O)cc1
carcinogen call (Species: MOUSE, Strain/Sex: B6C3F1/FEMALE, Route: INTRAPERITONEAL, Dose: 0, 12, 24 MG/KG 3/WK FOR 104 WK (STUDY DURATION: 104-105 WK), Dose: 0, 12, 24 MG/KG 3/WK FOR 104 WK (STUDY DURATION: 104-105 WK)): inactive; negative | carcinogen call (Species: MOUSE, Strain/Sex: B6C3F1/MALE, Route: INTRAPERITONEAL, Dose: 0, 12, 24 MG/KG 3/WK FOR 104 WK (STUDY DURATION: 104-105 WK), Dose: 0, 12, 24 MG/KG 3/WK FOR 104 WK (STUDY DURATION: 104-105 WK)): inactive; negative | carcinogen call (Species: RAT, Strain/Sex: F344/FEMALE, Route: INTRAPERITONEAL, Dose: 0, 7, 14 MG/KG 3/WK FOR 104 WK (STUDY DURATION: 104-105 WK), Dose: 0, 7, 14 MG/KG 3/WK FOR 104 WK (STUDY DURATION: 104-105 WK), Tumor Site: Type of Lesion: MAMMARY GLAND: FIBROADENOMA): active; positive | carcinogen call (Species: RAT, Strain/Sex: F344/MALE, Route: INTRAPERITONEAL, Dose: 0, 7, 14 MG/KG 3/WK FOR 104 WK (STUDY DURATION: 104-105 WK), Dose: 0, 7, 14 MG/KG 3/WK FOR 104 WK (STUDY DURATION: 104-105 WK), Tumor Site: Type of Lesion: MULTIPLE SITES: MALIGNANT MESOTHELIOMA, TUNICA VAGINALIS: MESOTHELIOMA): active; positive

Cc1ccc2c(c1)C1=Nc3ccccc3C3=Nc4ccccc4C(=N2)N31
carcinogen call (Species: MOUSE, Strain/Sex: ALBINO/MALE, FEMALE, Route: DERMAL, Tumor Site: Type of Lesion: SKIN: TUMOR): active; positive

C=CC(=O)OC(C)COCC(C)OCC(C)OC(=O)C=C (stereo not given)
carcinogen call (Species: MOUSE, Strain/Sex: TG.AC/FEMALE, Route: DERMAL, Dose: 0, 1, 5, 10 UMOL IN 200 µL ACETONE 3/WK FOR 20 WK (STUDY DURATION: 20 WK), Dose: 0, 1, 5, 10 UMOL IN 200 µL ACETONE 3/WK FOR 20 WK (STUDY DURATION: 20 WK), Tumor Site: Type of Lesion: SKIN: PAPILLOMA): active; positive

CNC(=O)Oc1ccc2c(c1)[C@]1(C)CCN(C)[C@@H]1N2C
carcinogen call (Species: RAT, Strain/Sex: SPRAGUE-DAWLEY/FEMALE (70/GROUP), Route: SUBCUTANEOUS (INGUINAL REGION), Dose: 0, 3.3 UG/KG BW, 2/D FOR 5 D (STUDY DURATION: 28 MO), Dose: 0, 3.3 UG/KG BW, 2/D FOR 5 D (STUDY DURATION: 28 MO), Tumor Site: Type of Lesion: MAMMARY GLAND: TUMOR): active; positive

O=[Si]=O
carcinogen call (Species: MOUSE, Strain/Sex: STRAIN-A/MALE, Route: INTRATRACHEAL, Dose: 0, 9.75 MG/KG IN SALINE 1/WK FOR 15 WK (STUDY DURATION: 20 WK)): inactive; negative | carcinogen call (Species: RAT, Strain/Sex: F344/FEMALE, Route: INHALATION, Dose: 0, 50 MG/M3 6 HR/D 5 D/WK FOR UP TO 24 MO (STUDY DURATION: 24 MO), Tumor Site: Type of Lesion: LUNG: CARCINOMA OR ADENOMA): active; positive | carcinogen call (Species: RAT, Strain/Sex: F344/MALE,FEMALE, Route: INHALATION, Dose: 0, 1 MG/M3 6 HR/D 5 D/WK FOR 24 MO (STUDY DURATION: 25.5 MO), Tumor Site: Type of Lesion: LUNG: TUMOR): active; positive | carcinogen call (Species: RAT, Strain/Sex: F344/MALE, Route: INHALATION, Dose: 0, 50 MG/M3 6 HR/D 5 D/WK FOR UP TO 24 MO (STUDY DURATION: 24 MO)): inactive; negative | carcinogen call (Species: RAT, Strain/Sex: INBRED-W/MALE, FEMALE, Route: INTRAPERITONEAL, Dose: 20 MG ALKALINE-WASHED MIN-U-SIL CRYSTALS (A COMMERCIAL FINE QUARTZ, 99% PURE) IN 0.4 ML SALINE AUTOCLAVED SUSPENSION (ST, Tumor Site: Type of Lesion: HEMATOPOIETIC SYSTEM: THYMOMA OR LYMPHOSARCOMA, LYMPHOMA): active; positive | carcinogen call (Species: RAT, Strain/Sex: INBRED-W/MALE, FEMALE, Route: INTRAPLEURAL, Dose: 20 MG ALKALINE-WASHED CRYSTALS (CRISTABOLITE FROM QUARTZ EXPOSED TO HIGH TEMPERATURE) IN A 0.4 ML SALINE AUTOCLAVED SUSP, Tumor Site: Type of Lesion: HEMATOPOIETIC SYSTEM: MALIGNANT HISTIOCYTIC LYMPHOMA, THYMOMA OR LYMPHOSARCOMA, LYMPHOMA): active; positive | carcinogen call (Species: RAT, Strain/Sex: INBRED-W/MALE, FEMALE, Route: INTRAPLEURAL, Dose: 20 MG ALKALINE-WASHED CRYSTALS <5 µM IN SIZE IN A 0.4 ML SALINE AUTOCLAVED SUSPENSION INTO RIGHT AXILLA (STUDY DURATION:, Tumor Site: Type of Lesion: HEMATOPOIETIC SYSTEM: MALIGNANT HISTIOCYTIC LYMPHOMA, MALIGNANT TUMOR): active; positive | carcinogen call (Species: RAT, Strain/Sex: INBRED-W/MALE, FEMALE, Route: INTRAPLEURAL, Dose: 20 MG ALKALINE-WASHED MIN-U-SIL CRYSTALS (A COMMERCIAL FINE QUARTZ, 99% PURE) IN 0.4 ML SALINE AUTOCLAVED SUSPENSION INT, Tumor Site: Type of Lesion: HEMATOPOIETIC SYSTEM: LYMPHOMA): active; positive | carcinogen call (Species: Rat, Strain/Sex: Wistar/Female (48/group), Route: Intratracheal, Dose: 3 mg of 0.09-0.2 um particles given as 10 instillations before wk 26, study duration 112 wk or no treatment, Tumor Site: Type of Lesion: Lung: Bronchiolo-alveolar adenoma (2/37 experimental animals vs 0/46 control animals)): active; positive, low incidence of benign tumors.

CN1CCC[C@H]1c1cccnc1
carcinogen call (Species: RAT, Strain/Sex: F344/FEMALE, Route: INHALATION, Dose: 0, 500 UG/M3 20 HR/D 5 D/WK FOR 2 YR (STUDY DURATION: 2 YR)): inactive; negative

c1ccc2ccccc2c1
carcinogen call (Species: MOUSE, Strain/Sex: B6C3F1/FEMALE, Route: INHALATION, Dose: 0, 10, 30 PPM 6 HR/D 5 D/WK FOR 104 WK (STUDY DURATION: 104 WK), Dose: 0, 10, 30 PPM 6 HR/D 5 D/WK FOR 104 WK (STUDY DURATION: 104 WK), Tumor Site: Type of Lesion: LUNG: ALVEOLAR/BRONCHIOLAR ADENOMA OR CARCINOMA): active; positive | carcinogen call (Species: MOUSE, Strain/Sex: B6C3F1/MALE, Route: INHALATION, Dose: 0, 10, 30 PPM 6 HR/D 5 D/WK FOR 104 WK (STUDY DURATION: 104 WK), Dose: 0, 10, 30 PPM 6 HR/D 5 D/WK FOR 104 WK (STUDY DURATION: 104 WK)): inactive; negative | carcinogen call (Species: MOUSE, Strain/Sex: CD-1/FEMALE, Route: INTRAPERITONEAL, Dose: 0, 0.25, 0.5, 1.0 UMOL IN DMSO TO NEWBORN MICE ON DAY 1, 8 AND 15 OF LIFE RESPECTIVELY (TOTAL DOSE: 1.75 UMOL) (STUDY DU, Dose: 0, 0.25, 0.5, 1.0 UMOL IN DMSO TO NEWBORN MICE ON DAY 1, 8 AND 15 OF LIFE RESPECTIVELY (TOTAL DOSE: 1.75 UMOL) (STUDY DU): inactive; negative | carcinogen call (Species: MOUSE, Strain/Sex: CD-1/MALE, Route: INTRAPERITONEAL, Dose: 0, 0.25, O.5, 1.0 UMOL IN DMSO TO NEWBORN MICE ON DAY 1,8 AND 15 OF LIFE RESPECTIVELY (TOTAL DOSE: 1.75 UMOL) (STUDY DUR, Dose: 0, 0.25, O.5, 1.0 UMOL IN DMSO TO NEWBORN MICE ON DAY 1,8 AND 15 OF LIFE RESPECTIVELY (TOTAL DOSE: 1.75 UMOL) (STUDY DUR): inactive; negative | carcinogen call (Species: RAT, Strain/Sex: F344/N/FEMALE, Route: INHALATION, Dose: 0, 10, 30, 60 PPM 6 HR/D 5 D/WK FOR 105 WK (STUDY DURATION: 105 WK), Dose: 0, 10, 30, 60 PPM 6 HR/D 5 D/WK FOR 105 WK (STUDY DURATION: 105 WK), Tumor Site: Type of Lesion: NOSE: NEUROBLASTOMA): active; positive | carcinogen call (Species: RAT, Strain/Sex: F344/N/MALE, Route: INHALATION, Dose: 0, 10, 30, 60 PPM 6 HR/D 5 D/WK FOR 105 WK (STUDY DURATION: 105 WK), Dose: 0, 10, 30, 60 PPM 6 HR/D 5 D/WK FOR 105 WK (STUDY DURATION: 105 WK), Tumor Site: Type of Lesion: NOSE: ADENOMA): active; positive
